Measurements: patent US7892767B2, “Phosphospecific chemokine receptor antibodies” (Washington University in St. Louis, priority 2005, dated 2011)

Columns and labels:
[1] = tested on: Daoy medulloblastoma cells; assay: Viable cell number by trypan blue exclusion, Daoy cells; assay type: cell-based, human; details: Rolipram 200 μM, AMD 3465 2.5 μg/ml; for effect on CXCL12 induced growth: with CXCL12 1 μg/ml, Forskolin 10 μM
Experimental: (§1) Brain tumor cell cultures. Cells were cultured in αMEM (Invitrogen, Carlsbad, Calif.) supplemented with 10% FCS (Biomedia, Foster City, Calif.) in the presence of penicillin streptomycin at 37° C. with 5% CO2.
(§2) Growth factor and drug treatment. Following serum-starvation for 24 hours, astrocytes, granule cells, U87 cells and Daoy cells, were treated with 1 μg/ml CXCL12 (PeproTech), […] AMD3465 (kind gift from Simon Fricker, AnorMED, Langley, BC, Canada) (200 μM Rolipram (Sigma), or 10 μM Forskolin (Sigma) as indicated.

[2] = Tolerability in xenograft-bearing mice; assay type: in vivo, mouse; details: 5 μg/g/day in the drinking water
[3] = tested on: Daoy medulloblastoma cells; assay: Intracellular cAMP by ELISA, Daoy medulloblastoma cells; assay type: cell-based, human
Experimental: as §2
(§3) cAMP measurement in cell culture. cAMP concentration was measured using a Correlated-EIA™. Enzyme Immunoassay Kit (Assay Designs Inc. MI) according to the manufacturer's instructions. Briefly, U87 or Daoy cells were serum-starved for 24 hours, and treated with CXCL12 (1 μg/ml), Rolipram (200 μM), or forskolin (10 μM). Cells were lysed in 0.1M HCL and particulate matter was removed by centrifugation at >600×g for 10 min. The supernatants were dried down and resuspended in assay buffer.
(§4) Determination of cAMP concentration. Competitive immunoassay for cAMP concentration was performed exactly as directed by the manufacturer. Absorbance at 405 nm was measured and cAMP concentrations were determined by calculation based on a standard curve. Protein concentrations were measured by colormetric assay (Bio-Rad, Hercules, Calif.) according to the manufacturer's directions. cAMP values were normalized to protein for each sample individually.

Daoy xenografts [4] = assay: cAMP in xenograft tumor tissue by ELISA; assay type: in vivo, mouse; details: same treatment paradigms as growth studies, EGFP-luciferase xenografts
Experimental: cAMP measurement in tumor tissue. EGFP-expressing tumor tissue was removed under direct fluorescence microscopy and frozen in liquid nitrogen. Frozen tissue was weighed and homogenized with 10 volumes of 10% ice-cold trichloroacetic acid, then centrifuged for 10 min at 4000 rpm to remove precipitate. The supernatant was washed three times with 8 volumes of water-saturated ether. The aqueous phase was dried down and resuspended in cAMP assay buffer.
as §4
To ascertain whether the in vivo anti-tumor effects of Rolipram and AMD 3465 were correlated with increases in intratumoral cAMP, we repeated the treatment paradigms with Daoy xenografts that had been engineered to express both enhanced green fluorescent protein (EGFP) and firefly luciferase. […] Tumor tissue was easily visualized in situ under direct fluorescence microscopy (FIG. 20A). Cyclic AMP was extracted from GFP positive tissue, and cAMP levels were measured by ELISA.

[5] = tested on: PDE4A-expressing U87 cells; assay: Viable cell number, PDE4A-expressing U87 cells; assay type: cell-based, human; details: CXCL12 1 μg/ml, AMD 3465 2.5 μg/ml, Rolipram 200 μM
Experimental: (§5) PDE4A expression. U87 and Daoy cells (15,000 cells) were transiently transfected for 48 h with a plasmid encoding a transgene for the tet-off transactivator (tTA) alone (kind gift from Dr. Louis Muglia, Washington University School of Medicine, St. Louis, Mo.), a plasmid containing a transgene for tet-off regulated expression of phosphodiesterase 4A (PDE4A) alone (kind gift from Dr. James Cherry, Boston University, Boston, Mass.), or a combination of both plasmids, using lipofectamine (Invitrogen) according to the manufacturer's instructions. Plasmid DNA (2 μg) was mixed with lipofectamine (5 μl) per 35 mm^2 dish. Transfection proceeded for 9 hours prior to exchanging transfection media for αMEM supplemented with 10% FCS.

U87 GBM xenografts = assay: Intracranial U87 xenograft growth by bioluminescence imaging; assay type: in vivo, mouse
U87 glioblastoma cells [6] = assay: Viable cell number by trypan blue exclusion, U87 cells; assay type: cell-based, human; details: Rolipram 200 μM, AMD 3465 2.5 μg/ml; for effect on CXCL12 induced growth: with CXCL12 1 μg/ml, Forskolin 10 μM
Experimental: as §1, §2

U87 glioblastoma cells [7] = assay: Intracellular cAMP by ELISA, U87 glioblastoma cells; assay type: cell-based, human
Experimental: as §2, §3, §4

[8] = in vivo; cited from earlier work
Daoy xenografts [9] = assay: Intracranial Daoy xenograft growth by bioluminescence imaging; assay type: in vivo, mouse
[10] = tested on: PDE4A-expressing Daoy cells; assay: Viable cell number, PDE4A-expressing Daoy cells; assay type: cell-based, human; details: CXCL12 1 μg/ml, AMD 3465 2.5 μg/ml, Rolipram 200 μM
Experimental: as §5

[11] = added to chemotherapy and radiation therapy; decreased consciousness and increased seizure activity; reference (109); cited from earlier work
CXCR4 = CXCR4 (Homo sapiens, UniProt P61073); details: compared with AMD 3100, reference (84); cited from earlier work
[12] = Rolipram 200 μM or Forskolin 10 μM, not abrogated by CXCL12
[13] = 5 μg/g/day in the drinking water, from two weeks after tumor cell injection
[14] = AMD 3465 2.5 μg/ml coadministered with CXCL12 1 μg/ml
[15] = continuous subcutaneous infusion 50 μg/day (2.5 mg/kg/day) for 5 weeks

Sequence of CXCR4 (P61073 whole entry, species assumed): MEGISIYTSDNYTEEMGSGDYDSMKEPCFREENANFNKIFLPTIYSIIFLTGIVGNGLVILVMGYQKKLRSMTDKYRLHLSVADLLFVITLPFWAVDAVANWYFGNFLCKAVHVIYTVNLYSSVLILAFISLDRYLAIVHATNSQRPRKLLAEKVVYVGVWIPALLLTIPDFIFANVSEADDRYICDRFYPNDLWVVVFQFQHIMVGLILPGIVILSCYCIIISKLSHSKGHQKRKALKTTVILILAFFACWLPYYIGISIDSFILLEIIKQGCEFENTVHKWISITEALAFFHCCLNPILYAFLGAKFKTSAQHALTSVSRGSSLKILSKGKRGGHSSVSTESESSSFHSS

Structure (SMILES): COc1ccc(C2CNC(=O)C2)cc1OC1CCCC1 (centres unmarked) [Rolipram]
- effect on cell number alone [1]: little to no effect
- effect on CXCL12 induced growth [1]: completely blocked
- animal weights compared to the control group ([2]; data not shown): better maintained
- appearance of treated animals ([2]; throughout the treatment period): appeared well
- change in intracellular cAMP [3, 12]: predictable increases
- amount of cAMP within tumor tissue (Daoy xenografts [4]): significant increase
- effect on cell number [5]: growth inhibitory effect
- inhibition of xenograft growth (U87 GBM xenografts; [13]): 96%
- effect on cell number alone (U87 glioblastoma cells [6]): little to no effect
- effect on CXCL12 induced growth (U87 glioblastoma cells [6]): completely blocked
- change in intracellular cAMP (U87 glioblastoma cells [7]; [12]): predictable increases
- blood brain barrier passage [8]: crosses an intact blood brain barrier
- inhibition of xenograft growth (Daoy xenografts [9]; [13]): 58%
- effect on cell number [10]: growth inhibitory effect

Structure (SMILES): CC(=O)CCCCn1c(=O)c2c(ncn2C)n(C)c1=O [Pentoxiphyllin]
- toxicity [11]: excessive toxicity

Structure (SMILES): c1ccc(CNCc2ccc(CN3CCCNCCNCCCNCC3)cc2)nc1 [AMD 3465]
- effect on cell number alone [1]: no significant effect
- effect on CXCL12 induced growth [1]: completely blocked
- affinity for CXCR4 (CXCR4): greater affinity
- effect on cAMP levels alone ([3]; AMD 3465 2.5 μg/ml): little to no effect
- CXCL12-induced suppression of cAMP [3, 14]: blocked
- amount of cAMP within tumor tissue (Daoy xenografts [4]): significant increase
- effect on cell number [5]: no effect
- inhibition of xenograft growth as compared to controls (U87 GBM xenografts; [15]): 80%
- effect on cell number alone (U87 glioblastoma cells [6]): no significant effect
- effect on CXCL12 induced growth (U87 glioblastoma cells [6]): completely blocked
- effect on cAMP levels alone (U87 glioblastoma cells [7]; AMD 3465 2.5 μg/ml): little to no effect
- CXCL12-induced suppression of cAMP (U87 glioblastoma cells [7]; [14]): blocked
- inhibition of xenograft growth as compared to controls (Daoy xenografts [9]; [15]): 85%
- effect on cell number [10]: no effect
